Measured values reported in US20230190760A1, “ADVANTAGEOUS THERAPIES FOR DISORDERS MEDIATED BY IKAROS OR AIOLOS” (C4 Therapeutics, Inc., priority 2020, published 2023).

Key:
HH = test: Anti-proliferative activity, 96 hours; settings: Homo sapiens
NHL cell lines = test: NHL cell line growth inhibition assay (CellTiter-Glo, 96 hr); format: cell-based; settings: variety of cancer assays (FIG. 45A-C, FIG. 52)
Maver-1 = test: Anti-proliferative activity, 96 hours; settings: Homo sapiens, Maver1, 96 h
H929 = test: Anti-proliferative activity, 96 hours; settings: Homo sapiens, NCI-H929, 96 h
SR = test: Anti-proliferative activity, 96 hours; settings: Homo sapiens
KIJK = test: Anti-proliferative activity, 96 hours
IKZF1 [1] = target: T1, IKZF1 (Rattus norvegicus, UniProt A0A0G2JVD9); test: Ex vivo IKZF1 degradation in PBMC, rat; format: cell-based; settings: rat cells
T1 construct: from tissue; host or cells: peripheral blood cells (PBMC) of rats, ex vivo
Protocol: (§1) IKZF1/3 are not degraded in mouse cells treated with thalidomide or its IMiD® analogs because of a single amino acid difference in mouse cereblon compared to human cereblon that causes steric hindrance and prevents recruitment of IKZF1/3. Ex vivo studies were performed in peripheral blood cells (PBMC) of mice, rats, dogs, and monkeys to identify relevant species for IND enabling-toxicity studies based on the degree of IKZF1 degradation by Compound 1. IKZF1 was not degraded in mouse or rat cells by Compound 1, thus, while rat could not be considered a pharmacologically relevant species for human risk assessment, it was chosen as the rodent species for toxicological studies because it is widely used in toxicity testing and a substantial historical toxicology database is available. […] Therefore, cynomolgus monkey was chosen for non-rodent toxicological studies.

IKZF1 [2] = target: IKZF1 (Homo sapiens, UniProt Q13422+Q96SW2); test: Ikaros degradation in Ki-JK cells by flow cytometry; format: cell-based; parameters: host or cells: Ki-JK cells
Protocol: Flow cytometry was used to assess the Ikaros degradation characteristics and evaluate the mechanism of Compound 1. […] The cells were prepared for staining using the FOXP3 Fix/Perm Buffer Set (BioLegend, 421403) according to the manufacturer's instructions at 1.5, 3, and 6 hours. IKZF1-AF488 (564867) and IgG1-488 (557782) (BD Biosciences) were diluted 1:100 in Perm Buffer. Signal was detected using the Guava® easyCyte™ Flow Cytometer. […] Degradation was not observed with the combination of Compound 1 and bortezomib or MLN-4924.

TMD8 DLBCL tumors = test: TMD8 DLBCL xenograft, NOD SCID mice; format: in vivo
Protocol: A xenograft study was also conducted in female NOD SCID mice bearing TMD8 DLBCL tumors.
Statistical analysis was performed using two-way analysis of variance (ANOVA). Data are expressed as MTV±SEM.

tumor xenografts = test: Mouse xenograft tumor models (summary); format: in vivo
Protocol: Compound 1 efficacy in two multiple myeloma cell lines (NC-H929) and (RPMI-8226) was evaluated at four different doses: 3 μg/kg, 10 μg/kg, 30 μg/kg, and 100 μg/kg. Compound 1 was administered QD (every day) orally (PO). […]

IKZF1/3 = test: Ex vivo IKZF1/3 degradation in PBMC, dog; format: cell-based; settings: dog cells
Protocol: as §1

RL = test: Anti-proliferative activity, 96 hours; settings: Homo sapiens
DL-40 ALCL tumors = test: DL-40 ALCL xenograft efficacy (Example 18); format: in vivo, mice; settings: PO daily for 21 days
Protocol: A xenograft study was conducted in female NOD SCID mice bearing DL-40 ALCL tumors.
(§2) Data are expressed as MTV±SEM.

HepG2 liver cancer cells = test: Viability assay in HepG2 liver cancer cells; format: cell-based; settings: concentrations up to 3.3 μM
NCIH929 cells = test: NCI-H929 viability assay (CellTiter-Glo)
Protocol: NCIH929 cell viability was determined based on quantification of ATP using CellTiter-Glo®2.0 luminescent Assay kit, which signals the presence of metabolically-active cells. Briefly, test compound was added to 384-well plates at a top concentration of 1 μM with 10 points, half log titration in duplicates. NCIH929 cells were seeded into the 384-well plates in RPMI medium containing 10% FBS and 0.05 mM 2-mercaptoethanol at a cell density of 750 cells per well. Cells treated in the absence of the test compound were the negative control and cells treated in the absence of CellTiter-Glo® 2.0 were the positive control. Cells treated with the test compounds were incubated at 37° C. with 5% CO2 for 96 hr. CellTiter-Glo reagent was then added to the cells and Luminescence was acquired on EnVision™ Multilabel Reader (PerkinElmer, Santa Clara, Calif., USA). % Viability was determined by normalizing the signal with positive and DMSO treated negative controls on the same microtiter plate. […] Curve fit and IC502 determination was performed by 4 parametric regression analysis.

[3] = system: Caspase 3/7 activity in NCIH929 multiple myeloma cells; test: Apoptosis induction, Caspase 3/7 activity in NCIH929 cells; format: cell-based
Protocol: 30 μL NCIH929 cells were seeded into the 384-well plates in RPMI medium containing 10% FBS and 0.05 mM 2-mercaptoethanol at a cell density of 1000 cells per well. Cells treated in the absence of the test compound were the negative control. Following compound treatment, cells were incubated at 37° C. with 5% CO2 for 72 hr. 30 μL reconstituted Caspase 3/7 Assay detection reagent was added to each well and luminescence was acquired on EnVision™ Multilabel Reader (PerkinElmer, Santa Clara, Calif., USA).

KI-JK ALCL tumors = test: KI-JK ALCL xenograft efficacy (Example 17); format: in vivo, mice; settings: 30 or 100 μg/kg PO daily for 21 days
Protocol: A xenograft study was conducted in female NOD SCID mice bearing KI-JK ALCL tumors.
as §2

Chain of IKZF1 (Homo sapiens, UniProt Q13422+Q96SW2) (Q13422 whole entry): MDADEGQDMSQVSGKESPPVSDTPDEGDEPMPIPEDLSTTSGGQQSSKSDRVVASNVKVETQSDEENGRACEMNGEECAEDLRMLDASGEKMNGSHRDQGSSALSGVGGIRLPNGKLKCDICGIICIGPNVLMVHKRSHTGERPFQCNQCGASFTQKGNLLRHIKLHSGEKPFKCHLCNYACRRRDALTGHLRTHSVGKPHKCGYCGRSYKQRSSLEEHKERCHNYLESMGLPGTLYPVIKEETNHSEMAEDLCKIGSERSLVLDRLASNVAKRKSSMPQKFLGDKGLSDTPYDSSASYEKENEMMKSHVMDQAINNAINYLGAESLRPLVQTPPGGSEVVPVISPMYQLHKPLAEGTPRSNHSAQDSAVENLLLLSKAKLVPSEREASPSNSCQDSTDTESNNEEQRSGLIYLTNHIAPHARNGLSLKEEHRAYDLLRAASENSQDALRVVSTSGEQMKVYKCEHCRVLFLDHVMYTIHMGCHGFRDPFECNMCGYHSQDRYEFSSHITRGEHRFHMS
Chain of IKZF1 (Homo sapiens, UniProt Q13422+Q96SW2) (Q96SW2 whole entry): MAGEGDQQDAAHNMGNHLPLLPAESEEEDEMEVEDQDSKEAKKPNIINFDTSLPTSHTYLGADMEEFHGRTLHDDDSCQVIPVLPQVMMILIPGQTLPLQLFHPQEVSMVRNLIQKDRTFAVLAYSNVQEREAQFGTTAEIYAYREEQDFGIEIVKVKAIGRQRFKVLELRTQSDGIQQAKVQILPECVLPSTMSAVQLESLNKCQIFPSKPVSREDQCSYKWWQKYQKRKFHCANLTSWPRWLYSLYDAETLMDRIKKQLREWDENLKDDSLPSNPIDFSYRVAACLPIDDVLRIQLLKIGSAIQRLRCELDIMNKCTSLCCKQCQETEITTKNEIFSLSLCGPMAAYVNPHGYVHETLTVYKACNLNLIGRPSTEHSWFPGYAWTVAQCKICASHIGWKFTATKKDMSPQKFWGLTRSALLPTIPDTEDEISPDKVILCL
Chain of IKZF1 (Homo sapiens, UniProt Q13422+Q96SW2) (Q16531 2-1140 partner limits assumed): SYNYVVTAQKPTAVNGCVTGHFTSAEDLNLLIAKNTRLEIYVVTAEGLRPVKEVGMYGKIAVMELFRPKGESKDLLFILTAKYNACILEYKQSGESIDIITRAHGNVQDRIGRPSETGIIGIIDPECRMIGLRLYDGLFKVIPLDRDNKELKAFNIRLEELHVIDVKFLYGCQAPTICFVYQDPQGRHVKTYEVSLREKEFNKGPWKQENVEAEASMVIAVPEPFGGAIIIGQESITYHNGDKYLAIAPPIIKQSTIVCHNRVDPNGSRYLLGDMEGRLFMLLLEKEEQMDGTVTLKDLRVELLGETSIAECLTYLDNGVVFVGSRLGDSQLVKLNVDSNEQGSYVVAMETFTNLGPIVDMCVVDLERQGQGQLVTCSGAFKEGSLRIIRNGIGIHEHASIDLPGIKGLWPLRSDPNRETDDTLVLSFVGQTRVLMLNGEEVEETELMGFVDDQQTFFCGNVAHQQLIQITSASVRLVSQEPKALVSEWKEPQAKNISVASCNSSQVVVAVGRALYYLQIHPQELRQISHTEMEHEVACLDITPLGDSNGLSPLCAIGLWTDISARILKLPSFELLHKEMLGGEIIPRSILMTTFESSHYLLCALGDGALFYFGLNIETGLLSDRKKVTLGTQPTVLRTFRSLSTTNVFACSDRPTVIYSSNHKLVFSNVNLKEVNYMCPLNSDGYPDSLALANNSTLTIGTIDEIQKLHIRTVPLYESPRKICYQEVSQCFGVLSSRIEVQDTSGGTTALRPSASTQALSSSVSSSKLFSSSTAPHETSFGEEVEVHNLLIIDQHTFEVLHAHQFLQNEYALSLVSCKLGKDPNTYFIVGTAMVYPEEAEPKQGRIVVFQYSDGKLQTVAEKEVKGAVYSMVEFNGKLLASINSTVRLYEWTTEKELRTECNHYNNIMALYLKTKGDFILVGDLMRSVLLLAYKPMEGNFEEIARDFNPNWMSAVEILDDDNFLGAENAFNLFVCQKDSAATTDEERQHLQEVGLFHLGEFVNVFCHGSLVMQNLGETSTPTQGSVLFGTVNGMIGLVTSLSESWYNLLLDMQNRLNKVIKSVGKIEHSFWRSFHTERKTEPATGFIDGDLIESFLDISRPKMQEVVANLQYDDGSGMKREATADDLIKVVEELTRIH
T1 sequence (A0A0G2JVD9 1-562): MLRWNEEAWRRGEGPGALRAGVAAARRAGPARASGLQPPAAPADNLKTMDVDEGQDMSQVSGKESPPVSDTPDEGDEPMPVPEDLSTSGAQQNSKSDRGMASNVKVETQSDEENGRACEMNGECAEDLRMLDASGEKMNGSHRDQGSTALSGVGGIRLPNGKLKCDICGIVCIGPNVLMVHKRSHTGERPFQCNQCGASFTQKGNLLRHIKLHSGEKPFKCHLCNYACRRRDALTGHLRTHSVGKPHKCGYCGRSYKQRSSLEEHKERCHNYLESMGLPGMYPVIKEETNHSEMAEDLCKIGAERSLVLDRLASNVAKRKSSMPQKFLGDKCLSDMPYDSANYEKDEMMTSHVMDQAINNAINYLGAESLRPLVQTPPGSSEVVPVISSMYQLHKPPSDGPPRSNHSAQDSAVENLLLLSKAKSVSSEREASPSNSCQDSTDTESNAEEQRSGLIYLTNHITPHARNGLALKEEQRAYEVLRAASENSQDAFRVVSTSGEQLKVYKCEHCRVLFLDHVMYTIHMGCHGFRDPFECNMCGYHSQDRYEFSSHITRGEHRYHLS
T1 sequence (Q56AP7 whole entry partner): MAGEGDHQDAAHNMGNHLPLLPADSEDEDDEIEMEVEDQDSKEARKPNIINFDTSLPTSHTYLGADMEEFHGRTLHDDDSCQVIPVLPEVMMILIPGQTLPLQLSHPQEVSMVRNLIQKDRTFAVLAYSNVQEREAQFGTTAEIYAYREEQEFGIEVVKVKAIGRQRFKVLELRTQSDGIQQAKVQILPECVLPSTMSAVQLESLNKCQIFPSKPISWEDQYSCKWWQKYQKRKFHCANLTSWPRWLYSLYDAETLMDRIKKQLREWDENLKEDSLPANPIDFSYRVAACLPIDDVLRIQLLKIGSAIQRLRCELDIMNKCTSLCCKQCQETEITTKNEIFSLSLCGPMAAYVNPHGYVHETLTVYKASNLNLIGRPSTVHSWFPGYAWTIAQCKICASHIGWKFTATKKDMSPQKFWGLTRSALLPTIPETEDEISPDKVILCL

In the case of O=C1CC[C@H](N2C(=O)c3cccc4c(Cc5ccc(CN6CCOCC6)cc5)ccc2c34)C(=O)N1 (single isomer, unassigned) [Compound 1], the IC50 (HH) is reported as 58 nM, the “more potent than pomalidomide” value (NHL cell lines) is reported as “more than 100 fold” and the IC50 (Maver-1) is reported as 12.1 nM. The IC50 (H929) was 0.073 nM, the IC50 (SR) was 16.2 nM and the IC50 (KIJK) was 0.583 nM. For the same compound, the IKZF1 degradation (IKZF1 [1]) was “not degraded”, the “time of maximal Ikaros degradation” value (IKZF1 [2]; 0.001-100 nM, read at 1.5, 3 and 6 hours) was 6 h and the “Ikaros degradation with proteasome or neddylation inhibitor” value (IKZF1 [2]; with bortezomib (10 μM) or MLN-4924 (10 μM), 6 hours) was “not observed”. For the same compound, the “Statistical Significance Compared to Vehicle” value (TMD8 DLBCL tumors; 100 μg/kg PO daily) was under 0.0001, the tumor volume (TMD8 DLBCL tumors; Compound 1 100 μg/kg, pomalidomide 3000 μg/kg, 18 days) was “decreased” and the tumor response (tumor xenografts; daily dosing at 30 μg/kg/day to 100 μg/kg/day, several tumor xenografts) was “durable tumor regression”. For the same compound, the efficacy (tumor xenografts; from 3 μg/kg/day to 100 μg/kg/day) was “dose dependent efficacy”, the “effect on IKZF1/3” value (IKZF1/3) was “no effect” and the IC50 (RL) was 2.32 nM. The “tumor volume versus pomalidomide” value (DL-40 ALCL tumors) was “more successful at decreasing tumor volume than pomalidomide”, the effect on viability (HepG2 liver cancer cells) was “no significant effect” and the “Mean Emax (%) ± SD, H929 Viability” value (NCIH929 cells; 96 hours, % viability) was 4.0 ± 0.5%. For the same compound, the maximal growth inhibition (NCIH929 cells; previously untreated NCIH929) was 96%, the IC50 (NCIH929 cells; read-out: Mean IC50 (nM), H929 Viability, 96 hours) was 0.071 nM and the “Maximum caspase 3/7 activity” value ([3]; 72 hours) was over 2 fold. For the same compound, the EC50 ([3]; Homo sapiens, NCI-H929, 72 h, read-out: EC50, caspase 3/7 activity) was 0.58 nM and the tumor volume (KI-JK ALCL tumors) was “decreased”.
